# Patent US9833497B2, “Human originated EGF domain proteins and use of the same” (CHENGDU SOURCEBIO LIMITED-LIABILITY COMPANY, priority 2013, dated 2017)
# Key:
# Type in all cases: cell-based
# [1] = tested on: Enterobacter cloacae; assay: MIC against Gram-negative bacteria: Enterobacter cloacae; conditions: 5×10^5 CFU/mL
# Summary of the method: (§1)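 Bacteria grown in LB at 37° C with shaking to McFarland 0.5, pelleted and resuspended in fresh LB, then seeded at 5×10^5 CFU/mL per well. Purified recombinant human EGF domain proteins were two-fold serially diluted in triplicate and plates shaken at 37° C, 175 rpm. MIC is the lowest protein concentration with no bacterial growth.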
# [2] = tested on: E. coli BL21; assay: MIC against Gram-negative bacteria: E. coli BL21; conditions: 5×10^5 CFU/mL
# Summary of the method: as §1
# [3] = tested on: Serratia marcescens; assay: MIC against Gram-negative bacteria: Serratia marcescens; conditions: 5×10^5 CFU/mL
# Summary of the method: as §1
# [4] = tested on: Klebsiella pneumonia; assay: MIC against Gram-negative bacteria: Klebsiella pneumonia; conditions: 5×10^5 CFU/mL
# Summary of the method: as §1
# [5] = tested on: Aeromonas hydrophila; assay: MIC against Gram-negative bacteria: Aeromonas hydrophila; conditions: 5×10^5 CFU/mL
# Summary of the method: as §1
# [6] = tested on: Pseudomonas aeruginosa; assay: MIC against Gram-negative bacteria: Pseudomonas aeruginosa; conditions: 5×10^5 CFU/mL
# Summary of the method: as §1
# [7] = tested on: Moraxella catarrhalis; assay: MIC against Gram-negative bacteria: Moraxella catarrhalis; conditions: 5×10^5 CFU/mL
# Summary of the method: as §1
# [8] = tested on: Citrobacter diversus; assay: MIC against Gram-negative bacteria: Citrobacter diversus; conditions: 5×10^5 CFU/mL
# Summary of the method: as §1
# [9] = tested on: Proteus mirabilis; assay: MIC against Gram-negative bacteria: Proteus mirabilis; conditions: 5×10^5 CFU/mL
# Summary of the method: as §1
# [10] = tested on: Proteus vulgaris; assay: MIC against Gram-negative bacteria: Proteus vulgaris; conditions: 5×10^5 CFU/mL
# Summary of the method: as §1
# [11] = tested on: E. coli DH5α; assay: Antibacterial activity: MIC and growth curve against E. coli DH5α in 96-well plate; conditions: minimal inhibitory concentration against E. coli DH5α; 96-well plate, 5×10^5 CFU/mL, 37° C., judged after 8 h
# Summary of the method: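 Log-phase bacteria (OD600 ~0.5) resuspended in LB at 5×10^5 CFU/mL, exposed to recombinant protein at 50, 25, 12.5 μg/mL final in triplicate, 37 °C shaking at 175 rpm. OD600 read every 30 min; MIC is lowest concentration showing no growth.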
# [12] = Enterobacter cloacae, 96-well plate, 37° C., 10 h
# [13] = E. coli BL21, 96-well plate, 37° C., 10 h
# [14] = Serratia marcescens, 96-well plate, 37° C., 10 h
# [15] = Klebsiella pneumonia, 96-well plate, 37° C., 10 h
# [16] = Aeromonas hydrophila, 96-well plate, 37° C., 10 h
# [17] = Pseudomonas aeruginosa, 96-well plate, 37° C., 10 h
# [18] = Moraxella catarrhalis, 96-well plate, 37° C., 10 h
# [19] = Citrobacter diversus, 96-well plate, 37° C., 10 h
# [20] = Proteus mirabilis, 96-well plate, 37° C., 10 h
# [21] = Proteus vulgaris, 96-well plate, 37° C., 10 h
# [22] = E. cloacae, 10 h cultivation at 37° C.
# [23] = E. coli BL21, 10 h cultivation at 37° C.
# [24] = S. marcescens, 10 h cultivation at 37° C.
# [25] = K. pneumonia, 10 h cultivation at 37° C.
# [26] = A. hydrophila, 10 h cultivation at 37° C.
# [27] = P. aeruginosa, 10 h cultivation at 37° C.
# [28] = M. catarrhalis, 10 h cultivation at 37° C.
# [29] = C. diversus, 10 h cultivation at 37° C.
# [30] = P. mirabilis, 10 h cultivation at 37° C.
# [31] = P. vulgaris, 10 h cultivation at 37° C.
# [32] = Enterobacter cloacae, 10 h cultivation at 37° C.
# [33] = Serratia marcescens, 10 h cultivation at 37° C.
# [34] = Klebsiella pneumonia, 10 h cultivation at 37° C.
# [35] = Aeromonas hydrophila, 10 h cultivation at 37° C.
# [36] = Pseudomonas aeruginosa, 10 h cultivation at 37° C.
# [37] = Moraxella catarrhalis, 10 h cultivation at 37° C.
# [38] = Citrobacter diversus, 10 h cultivation at 37° C.
# [39] = Proteus mirabilis, 10 h cultivation at 37° C.
# [40] = Proteus vulgaris, 10 h cultivation at 37° C.
substance,measurement,setting,value
PRT452 (DIDECTEMPFVCSQKCENVIGSYICKCAPGYLREPDGKTC; listed as Homo sapiens),MIC against E. cloacae,"[1]; 96-well plate, 37° C., 10 h",50 µg/mL
same,MIC against E. coli BL21,"[2]; 96-well plate, 37° C., 10 h",12.5 µg/mL
same,MIC against S. marcescens,"[3]; 96-well plate, 37° C., 10 h",50 µg/mL
same,MIC against K. pneumonia,"[4]; 96-well plate, 37° C., 10 h",12.5 µg/mL
same,MIC against A. hydrophila,"[5]; 96-well plate, 37° C., 10 h",12.5 µg/mL
same,MIC against P. aeruginosa,"[6]; 96-well plate, 37° C., 10 h",12.5 µg/mL
same,MIC against M. catarrhalis,"[7]; 96-well plate, 37° C., 10 h",25 µg/mL
same,MIC against C. diversus,"[8]; 96-well plate, 37° C., 10 h",50 µg/mL
same,MIC against P. mirabilis,"[9]; 96-well plate, 37° C., 10 h",12.5 µg/mL
same,MIC against P. vulgaris,"[10]; 96-well plate, 37° C., 10 h",25 µg/mL
same,MIC,[11],12.5 µg/mL
PRT1331 (EIDPCADGLNGGCHEHATCKMTGPGKHKCECKSHYVGDGLNCE; listed as Homo sapiens),MIC against E. cloacae,[1]; [12],50 µg/mL
same,MIC against E. coli BL21,[2]; [13],50 µg/mL
same,MIC against S. marcescens,[3]; [14],25 µg/mL
same,MIC against K. pneumonia,[4]; [15],12.5 µg/mL
same,MIC against A. hydrophila,[5]; [16],12.5 µg/mL
same,MIC against P. aeruginosa,[6]; [17],25 µg/mL
same,MIC against M. catarrhalis,[7]; [18],50 µg/mL
same,MIC against C. diversus,[8]; [19],25 µg/mL
same,MIC against P. mirabilis,[9]; [20],25 µg/mL
same,MIC against P. vulgaris,[10]; [21],12.5 µg/mL
same,MIC,[11],25 µg/mL
PRT209 (DVDECAQALHDCRPSQDCHNLPGSYQCTCPDGYR; listed as Homo sapiens),MIC (μg/mL) E. cloacae,[1]; [22],12.5 µg/mL
same,MIC (μg/mL) E. coli BL21,[2]; [23],12.5 µg/mL
same,MIC (μg/mL) S. marcescens,[3]; [24],12.5 µg/mL
same,MIC (μg/mL) K. pneumonia,[4]; [25],25 µg/mL
same,MIC (μg/mL) A. hydrophila,[5]; [26],12.5 µg/mL
same,MIC (μg/mL) P. aeruginosa,[6]; [27],12.5 µg/mL
same,MIC (μg/mL) M. catarrhalis,[7]; [28],12.5 µg/mL
same,MIC (μg/mL) C. diversus,[8]; [29],12.5 µg/mL
same,MIC (μg/mL) P. mirabilis,[9]; [30],12.5 µg/mL
same,MIC (μg/mL) P. vulgaris,[10]; [31],50 µg/mL
same,MIC,[11],12.5 µg/mL
PRT674 (DVDECQDPAACRPGRCVNLPGSYRCECRPPWVPGPSGRDCQ; listed as Homo sapiens),MIC E. cloacae,"[1]; 96-well plate, 37° C., 10 h",12.5 µg/mL
same,MIC E. coli BL21,"[2]; 96-well plate, 37° C., 10 h",25 µg/mL
same,MIC S. marcescens,"[3]; 96-well plate, 37° C., 10 h",25 µg/mL
same,MIC K. pneumonia,"[4]; 96-well plate, 37° C., 10 h",25 µg/mL
same,MIC A. hydrophila,"[5]; 96-well plate, 37° C., 10 h",50 µg/mL
same,MIC P. aeruginosa,"[6]; 96-well plate, 37° C., 10 h",50 µg/mL
same,MIC M. catarrhalis,"[7]; 96-well plate, 37° C., 10 h",25 µg/mL
same,MIC C. diversus,"[8]; 96-well plate, 37° C., 10 h",25 µg/mL
same,MIC P. mirabilis,"[9]; 96-well plate, 37° C., 10 h",12.5 µg/mL
same,MIC P. vulgaris,"[10]; 96-well plate, 37° C., 10 h",50 µg/mL
same,MIC,[11],12.5 µg/mL
PRT811 (FGKNCSFSCSCQNGGTCDSVTGACRCPPGVSGTNCE; listed as Homo sapiens),MIC (μg/mL) E. cloacae,[1]; [22],12.5 µg/mL
same,MIC (μg/mL) E. coli BL21,[2]; [23],25 µg/mL
same,MIC (μg/mL) S. marcescens,[3]; [24],25 µg/mL
same,MIC (μg/mL) K. pneumonia,[4]; [25],12.5 µg/mL
same,MIC (μg/mL) A. hydrophila,[5]; [26],12.5 µg/mL
same,MIC (μg/mL) P. aeruginosa,[6]; [27],12.5 µg/mL
same,MIC (μg/mL) M. catarrhalis,[7]; [28],12.5 µg/mL
same,MIC (μg/mL) C. diversus,[8]; [29],12.5 µg/mL
same,MIC (μg/mL) P. mirabilis,[9]; [30],25 µg/mL
same,MIC (μg/mL) P. vulgaris,[10]; [31],25 µg/mL
same,MIC,[11],12.5 µg/mL
PRT84 (EAGRCVPGVCRNGGTCTDAPNGGFRCQCPAGGAFEGPRCE; listed as Homo sapiens),MIC (μg/mL) E. cloacae,[1]; [12],12.5 µg/mL
same,MIC (μg/mL) E. coli BL21,[2]; [13],25 µg/mL
same,MIC (μg/mL) S. marcescens,[3]; [14],12.5 µg/mL
same,MIC (μg/mL) K. pneumonia,[4]; [15],25 µg/mL
same,MIC (μg/mL) A. hydrophila,[5]; [16],25 µg/mL
same,MIC (μg/mL) P. aeruginosa,[6]; [17],12.5 µg/mL
same,MIC (μg/mL) M. catarrhalis,[7]; [18],25 µg/mL
same,MIC (μg/mL) C. diversus,[8]; [19],12.5 µg/mL
same,MIC (μg/mL) P. mirabilis,[9]; [20],12.5 µg/mL
same,MIC (μg/mL) P. vulgaris,[10]; [21],25 µg/mL
same,MIC,[11],12.5 µg/mL
PRT1401 (VCHPRCIEHGTCKDGKCECREGWNGEHCT; listed as Homo sapiens),MIC against E. cloacae,[1]; [32],12.5 µg/mL
same,MIC against E. coli BL21,[2]; [23],25 µg/mL
same,MIC against S. marcescens,[3]; [33],12.5 µg/mL
same,MIC against K. pneumonia,[4]; [34],25 µg/mL
same,MIC against A. hydrophila,[5]; [35],25 µg/mL
same,MIC against P. aeruginosa,[6]; [36],12.5 µg/mL
same,MIC against M. catarrhalis,[7]; [37],25 µg/mL
same,MIC against C. diversus,[8]; [38],12.5 µg/mL
same,MIC against P. mirabilis,[9]; [39],12.5 µg/mL
same,MIC against P. vulgaris,[10]; [40],25 µg/mL
same,MIC,[11],12.5 µg/mL
PRT194 (CRSKCHGHGVCDSNRHCYCEEGWAPPDCT; listed as Homo sapiens),MIC (μg/mL) E. cloacae,[1]; [22],12.5 µg/mL
same,MIC (μg/mL) E. coli BL21,[2]; [23],25 µg/mL
same,MIC (μg/mL) S. marcescens,[3]; [24],12.5 µg/mL
same,MIC (μg/mL) K. pneumonia,[4]; [25],25 µg/mL
same,MIC (μg/mL) A. hydrophila,[5]; [26],12.5 µg/mL
same,MIC (μg/mL) P. aeruginosa,[6]; [27],12.5 µg/mL
same,MIC (μg/mL) M. catarrhalis,[7]; [28],100 µg/mL
same,MIC (μg/mL) C. diversus,[8]; [29],12.5 µg/mL
same,MIC (μg/mL) P. mirabilis,[9]; [30],100 µg/mL
same,MIC (μg/mL) P. vulgaris,[10]; [31],25 µg/mL
same,MIC,[11],12.5 µg/mL
PRT663 (DVNECDDLNGPAVLCVHGYCENTEGSYRCHCSPGYVAEAGPPHCT; listed as Homo sapiens),MIC E. cloacae,"[1]; 96-well plate, 37° C., 10 h",12.5 µg/mL
same,MIC E. coli BL21,"[2]; 96-well plate, 37° C., 10 h",25 µg/mL
same,MIC S. marcescens,"[3]; 96-well plate, 37° C., 10 h",12.5 µg/mL
same,MIC K. pneumonia,"[4]; 96-well plate, 37° C., 10 h",25 µg/mL
same,MIC A. hydrophila,"[5]; 96-well plate, 37° C., 10 h",25 µg/mL
same,MIC P. aeruginosa,"[6]; 96-well plate, 37° C., 10 h",50 µg/mL
same,MIC M. catarrhalis,"[7]; 96-well plate, 37° C., 10 h",12.5 µg/mL
same,MIC C. diversus,"[8]; 96-well plate, 37° C., 10 h",50 µg/mL
same,MIC P. mirabilis,"[9]; 96-well plate, 37° C., 10 h",25 µg/mL
same,MIC P. vulgaris,"[10]; 96-well plate, 37° C., 10 h",50 µg/mL
same,MIC,[11],100 µg/mL
PRT1372 (GSRRCPGDCRGHGLCEDGVCVCDAGYSGEDC; listed as Homo sapiens),MIC against E. cloacae,[1]; [32],12.5 µg/mL
same,MIC against E. coli BL21,[2]; [23],25 µg/mL
same,MIC against S. marcescens,[3]; [33],12.5 µg/mL
same,MIC against K. pneumonia,[4]; [34],25 µg/mL
same,MIC against A. hydrophila,[5]; [35],25 µg/mL
same,MIC against P. aeruginosa,[6]; [36],12.5 µg/mL
same,MIC against M. catarrhalis,[7]; [37],25 µg/mL
same,MIC against C. diversus,[8]; [38],12.5 µg/mL
same,MIC against P. mirabilis,[9]; [39],12.5 µg/mL
same,MIC against P. vulgaris,[10]; [40],25 µg/mL
same,MIC,[11],12.5 µg/mL
